From patent publication US5317022A, “Pharmaceutical composition and use” (priority 1991, dated 1994)
Like-named read-outs stand apart in the source and are kept apart here.

Legend:
rat [1] = assay: analgetic effect, hot plate (rat); type: in vivo
mice [2] = assay: analgetic effect, writhing test (mice); type: in vivo
mice [3] = assay: physical dependency, jumping test on mice; details: treatment 7 x 100 mg/kg ip.; naloxone 50 mg/kg ip.
rat [4] = assay: analgetic effect, tail flick (rat); type: in vivo
rats [5] = assay: sedative (narcosis potentiating) effect, Inactine base narcotic, rats; type: in vivo
Procedure: Inactine (35 mg/kg) was used as a base narcotic.
*ED500 % = dose increasing narcosis to five times the control.

rat [6] = details: dose giving 100% activity
[7] = target: (^3 H)naloxone binding sites; assay: competition binding assay with (3H)naloxone on rat brain membranes; details: membranes incubated with (3H)naloxone 1 nM and increasing ligand concentrations; read-out: Affinity constants (Ki nM) in competition assays
Procedure: (§1) Membrane preparation: A crude membrane fraction from rat brain (PVG/C strain) was prepared [Mol. Pharm.11 (1975) 340-351 and the protein content was defined [Anal. Biochem. 72(1976) 248-254).
(§2) The membrane suspension (200-400 μg protein) was incubated with the specific radioligand for 1 hour on ice. Incubations were terminated by rapid filtration under vacuo followed by washing with ice cold tris HCl buffer (50 mM, pH 7,4). Radioactivity was measured in a toluene based scintillation mixture on a LKB Minibeta Liquid Scintillation Spectrophotometer. Nonspecific binding was defined in the presence of 10 μM unlabeled naloxone. All assays were performed in triplicate and repeated several times. Ki values were determined from equilibrium experiments and calculated with the Tshang-Prusov equation. The data were evaluated using the Ligand program [Anal. Biol. Chem. 107 (1980) 220-239](Data shown on Table III/1).

rat [8] = assay: animal or person; details: read-out: algolyt. test (rat) 100% activity
rabbits [9] = assay: effect on respiration on conscious rabbits (III.6, type A/B/C tests); type: in vivo; set-up: resp. change ampl.: unit not given here
Procedure: The method as described above in Example III.5 was used on conscious rabbits of 2,5-3 kg weight. Registration was continued for 3-4 hours. The samples were injected under the skin of the neck and the respiration parameters were registered at intervals of 10 minutes.

rabbits [10] = assay: effects on respiration on conscious rabbits (III.5, Marey-drum)
Procedure: Investigation was carried out on conscious rabbits of both sexes and of 3-4 kg weight by way of a Marey-drum. Frequency and amplitude of respiration were quantitatively evaluated.

mice [11] = details: in vivo
rats [12] = system: rats
[13] = target: (^3 H)naloxone binding sites; assay: wash-resistant binding of (3H)naloxone, rat brain membranes; details: preincubated with (3H)naloxone 1 nM and test compound; remaining specific binding after several washings; average of 2-4 data; compound.HCl; read-out: Ki (nM), affinity constants
Procedure: as §1, §2
After preincubation a thorough washing was performed. [Life Sci. 32 (1983) 2777-2784]. Control values are represented by the specific binding of (3H)naloxone to membranes preincubated with a buffer and treated in the same way. Heterologous displacement experiments were used to evaluate the affinity of the investigated compounds for (^3 H)naloxone binding sites.

[14] = s.c. on rats, Inactine 35 mg/kg, dose as base
[15] = type A: OH 0.25 mg/kg s.c., 20 min
[16] = type A: OH 0.25 mg/kg s.c., 30 min
[17] = type A: OH 0.25 mg/kg s.c., then morphine 5 mg/kg s.c., 10 min
[18] = type C: OH 0.25 mg/kg with morphine 5 mg/kg s.c., 20 min
[19] = OS 0.025 mg/kg s.c. (20 min), morphine 5 mg/kg s.c., 20 min
[20] = OS 0.025 mg/kg s.c. (30 min), morphine 5 mg/kg s.c., 30 min
[21] = OS 0.025 mg/kg s.c., 10 min (before morphine)
[22] = OS 0.50 mg/kg s.c. (30 min), morphine 20 mg/kg s.c., 20 min

CN1CC[C@]23c4c5ccc(O)c4O[C@H]2[C@@H](O)C=C[C@H]3[C@H]1C5 [Morphine, reference compound]
hot plate (rat) ED50 (rat [1]; rat): 3,6 mg/kg
writhing test (mice) ED50 (mice [2]; mice): 0,45 mg/kg
% relation of jumping animals (mice [3]): 100%
number of jumps/mouse (average) (mice [3]): 34,5
tail flick (rat) ED50 (rat [4]; rat): 1,8 mg/kg
ED500 % (dose increasing narcosis to five times the control) (rats [5]; [14]): 1,75 mg/kg
algolyt. test (rat) 100% activity (rat [6]): 15,0 mg/kg

COc1ccc2c3c1O[C@H]1C(=NN)CC[C@@]4(O)[C@@H](C2)N(C)CC[C@]314 [Oxycodone hydrazone, 14-OH-DIHYDROCODEINONE-HYDRAZONE (TRANS)]
ED50 (rat [1]; Rattus norvegicus; read-out: hot plate (rat) ED50): 0.46 mg/kg
Ki [7]: 800 nM
ED50 (mice [2]; Mus musculus; read-out: writhing test (mice) ED50): 0.35 mg/kg
ED50 (rat [4]; Rattus norvegicus; read-out: tail flick (rat) ED50): 0.65 mg/kg
ED100 (rat [8]): 10 mg/kg
resp. change ampl. (rabbits [9]; [15]): +20
resp. change fr/min (rabbits [9]; [15]): +150
resp. change ampl. (rabbits [9]; [16]): +20
resp. change fr/min (rabbits [9]; [16]): +127
resp. change ampl. (rabbits [9]; [17]): -30
resp. change fr/min (rabbits [9]; [17]): -36
resp. change ampl. (rabbits [9]; [18]): +10
resp. change fr/min (rabbits [9]; [18]): +30
volume and frequency of respiration (in words) (rabbits [10]; 50 μg/kg dose): increases both the volume and the frequency of respiration
respiration effect (printed over two lines: slight reversion) (rabbits [10]; rabbit, in vivo): reversion
reversal of morphine respiratory depression (in words) (rabbits [10]; rabbit, in vivo): a partial reversal takes place
respiration frequency/min. (rabbits [10]; rabbit, in vivo, sc): .uparw.
respiration volume (rabbits [10]; rabbit, in vivo, sc): .uparw.
number of jumps/mouse (average) (mice [11]): 1,5
% relation of jumping animals (mice [11]; mouse): 50%
ED500 % (dose increasing narcosis to five times the control) (rats [5]; rat, in vivo): 0,45 mg/kg
potentiation of Inactine narcosis (in words) (rats [5]; rat, in vivo): most effectively prolongated

COc1ccc2c3c1O[C@H]1C(=O)CC[C@@]4(O)[C@@H](C2)N(C)CC[C@]314 [Oxycodone, reference compound]
hot plate (rat) ED50 (rat [1]; rat): 0.92 mg/kg
writhing test (mice) ED50 (mice [2]; mice): 0,45 mg/kg
tail flick (rat) ED50 (rat [4]; rat): 0,68 mg/kg
respiration effect (rabbits [10]; 10-2500 μg/kg i.v., s.c.): depression
respiration frequency/min. (rabbits [10]; 10-2500 μg/kg i.v., s.c.): .dwnarw.
respiration volume (rabbits [10]; 10-2500 μg/kg i.v., s.c.): .dwnarw.
influence on the respiratory depression effect of morphine (in words) (rabbits [10]; rabbit, in vivo): unambiguously potentiate the respiratory depression effect of morphine
respiratory depression by the compound alone (in words) (rabbits [10]; s.c., dihydrocodeinone 50-2500 μg/kg, oxycodone 10-2500 μ/kg): cause respiratory depression
ED500 % (dose increasing narcosis to five times the control) (rats [5]; [14]): 1,2 mg/kg
change of morphine toxicity (in words) (rats [12]; administered together with morphine, s.c.): potentiate toxicity of morphine
Combination LD50 / morphine LD50 (rats [12]; test substance 10 mg/kg s.c.): 0,57
algolyt. test (rat) 100% activity (rat [6]): 2,2 mg/kg

COc1ccc2c3c1O[C@H]1C(=NNC(N)=O)CC[C@@]4(O)[C@@H](C2)N(C)CC[C@]314 [Oxycodone-semicarbazone, 14-OH-DIHYDROCODEINONE-SEMICARBAZONE (TRANS)]
ED50 (rat [1]; Rattus norvegicus, read-out: hot plate (rat) ED50): 0.58 mg/kg
Ki [7]: 588 nM
ED50 (mice [2]; Mus musculus, read-out: writhing test (mice) ED50): 0.15 mg/kg
ED50 (rat [4]; Rattus norvegicus, read-out: tail flick (rat) ED50): 0.35 mg/kg
ED100 (rat [8]): 5 mg/kg
resp. change ampl. (rabbits [9]; OS 0.01 mg/kg s.c., 10 min): 0
resp. change fr/min (rabbits [9]; OS 0.01 mg/kg s.c., 10 min): +48
resp. change ampl. (rabbits [9]; OS 0.01 mg/kg s.c., 30 min): +20
resp. change fr/min (rabbits [9]; OS 0.01 mg/kg s.c., 30 min): +51
resp. change ampl. (rabbits [9]; [19]): -16
resp. change fr/min (rabbits [9]; [19]): +24
resp. change ampl. (rabbits [9]; [20]): -20
resp. change fr/min (rabbits [9]; [20]): +13
resp. change ampl. (rabbits [9]; [21]): +20
resp. change fr/min (rabbits [9]; [21]): +48
resp. change ampl. (rabbits [9]; OS 0.025 mg/kg s.c., 30 min): +20
resp. change fr/min (rabbits [9]; OS 0.025 mg/kg s.c., 30 min): +51
resp. change ampl. (rabbits [9]; OS 0.05 mg/kg s.c., 10 min): +75
resp. change fr/min (rabbits [9]; OS 0.05 mg/kg s.c., 10 min): +50
resp. change ampl. (rabbits [9]; [22]): 0
resp. change fr/min (rabbits [9]; [22]): +10
resp. change ampl. (rabbits [9]; OS 0.50 mg/kg s.c., 10 min): 0
resp. change fr/min (rabbits [9]; OS 0.50 mg/kg s.c., 10 min): +36
respiration number (in words) (rabbits [9]; small doses): considerably increase the respiration number
respiration effect (printed over two lines: morphine-inhibition) (rabbits [10]; rabbit, in vivo): inhibition
respiration frequency/min. (rabbits [10]; rabbit, in vivo): .uparw.
respiration volume (rabbits [10]; rabbit, in vivo): .uparw..dwnarw.
ED500 % (dose increasing narcosis to five times the control) (rats [5]; rat, in vivo): 1,5 mg/kg
Ki [13]: 588 nM
